In data set [1] the test system is Normal human dermal fibroblasts (NHDF). Kind of data set: Hyaluronic acid production promoting effect (ELISA of supernatant). It is filed as cell-based. As to conditions: sample at 10 mM or less in serum-free D-MEM, cultured 48 hours, % of control group (100%), N=3. Here is the method:
Normal human dermal fibroblasts (NHDF) were prepared in D-MEM containing 5% (v/v) fetal bovine serum to a cell density of 2.5 × 10^4 cells/well, and then pre-incubated on a 96-well plate for 24 hours. After removing the medium, samples prepared in serum-free D-MEM were added to each well and cultured for 48 hours. After the culture was completed, the amount of hyaluronic acid in the supernatant was quantified by ELISA. Measurements were performed in triplicate (N=3).
The amount of hyaluronic acid produced when the sample was measured at a concentration of 10 mM or less was compared with that of the control group, and the results (% values when the control group is set to 100%) are shown in Tables 18 to 20 based on the following criteria. • <100%: ± • 100-120%: + • 120%<: ++ [Table 18]

The nature of data set [2]: Stability test -2: residual rate in cream of pH 7 or 9 stored at 50°C. The format is physicochemical. As to conditions: cream with 4.0 W/W% derivative. As for the experimental part:
(§1) For each of the samples of Synthesis Examples 9 to 32, (a) and (b) shown in Table 12 were each heated and mixed. After cooling, (c) shown in Table 12 was added to prepare a cream with a pH of 7 or 9. The sample was stored at 50°C for 4 weeks, and the residual rate was determined in the same manner as in Test Example 1 and evaluated according to the criteria described below. The odor and coloration were also evaluated according to the same method and criteria as in Test Example 1. The results regarding the residual rate are shown in Tables 13 and 14, and the results regarding the odor and coloration are shown in Tables 15 and 16.
• ⊚: 95% or more • ○: 85% or more, less than 95% • ×: Less than 85% [Table 12]

Data set [3] is described as follows: Stability test -2: odor and coloration of cream stored at 50°C. It is filed as physicochemical. As to conditions: Test Example 2, cream stored at 50°C, total score of 10 panelists. Here is the method:
For each of the samples of Synthesis Examples 1 to 6, 1% aqueous solutions were adjusted to pH 3, 5, 7, 8, and 9 with a dilute potassium hydroxide aqueous solution, and then placed in 50 mL screw tubes and • 2: Color changes compared to immediately after preparation. • 1: Strongly colored compared to immediately after preparation. Based on the results of the above evaluation, the following classification was made: • ○: Total score of 10 panelists is 25 or more • △: Total score of 10 panelists is 16-24 • ×: The total score of 10 panelists is 15 or less [Table 10]
as §1

In the case of `CCCCCCCCCCCCCCCC(=O)OC[C@H](O)[C@H]1OC(=O)C(OP(=O)(O)O)=C1O` [Ascorbyl phosphate 3Na palmitate, reference compound], the “Hyaluronic acid production-promoting effect” value in data set [1] is “± (<100%)”.

As to `CCCCCCCCC(CCCCCC)C(=O)OC[C@H](OC(=O)C(CCCCCC)CCCCCCCC)[C@H]1OC(=O)C(OC(=O)C(CCCCCC)CCCCCCCC)=C1OC(=O)C(CCCCCC)CCCCCCCC` (some centres unmarked) [Ascorbyl tetrahexyldecanoate, reference compound], in data set [2] (pH7, stored at 50°C), the “Residual Rate After 2 weeks” value is “○ (85% or more, less than 95%)” and the “Residual Rate After 4 weeks” value is “× (Less than 85%)”. For the same compound, in data set [2] (pH9, stored at 50°C), the “Residual Rate After 2 weeks” value is listed as “○ (85% or more, less than 95%)” and the “Residual Rate After 4 weeks” value is on record as “× (Less than 85%)”. In addition, in data set [3], the “Coloration After 2 weeks” value is “○ (Total score of 10 panelists is 25 or more)”, the “Odor After 2 weeks” value is reported as “○ (Total score of 10 panelists is 25 or more)”, the “Coloration After 4 weeks” value was “Δ” and the “Odor After 4 weeks” value was “Δ”.

Regarding `CCCCCCCCCCCCCCCC(=O)OCC(OC(=O)CCC)C1OC(=O)C2=C1OCCCO2` (centres unmarked) [Synthesis Example 30, 5-O-butanoyl-6-O-palmitoyl-2,3-O-(1,3-propanediyl) ascorbic acid], in data set [2] (pH7, stored at 50°C), the “Residual Rate After 2 weeks” value is recorded as “⊚ (95% or more)” and the “Residual Rate After 4 weeks” value is “⊚ (95% or more)”. In data set [2] (pH9, stored at 50°C), the “Residual Rate After 2 weeks” value was “⊚ (95% or more)” and the “Residual Rate After 4 weeks” value was “⊚ (95% or more)”. Moreover, in data set [3], the “Coloration After 2 weeks” value is given as “○ (Total score of 10 panelists is 25 or more)”, the “Odor After 2 weeks” value is on record as “○ (Total score of 10 panelists is 25 or more)”, the “Coloration After 4 weeks” value is recorded as “○ (Total score of 10 panelists is 25 or more)” and the “Odor After 4 weeks” value is recorded as “Δ”.

Take `CC(C)CCCCCCCCCCCCCCC(=O)OCC(OC(=O)CCCCCCCCCCCCCCC(C)C)C1OC(=O)C2=C1OCCO2` (centres unmarked) [Synthesis Example 32, 5,6-O-diisostearoyl-2,3-O-(1,2-ethanediyl) ascorbic acid]: in data set [2] (pH7, stored at 50°C), the “Residual Rate After 2 weeks” value is on record as “⊚ (95% or more)” and the “Residual Rate After 4 weeks” value is “⊚ (95% or more)”. Also, in data set [2] (pH9, stored at 50°C), the “Residual Rate After 2 weeks” value is given as “⊚ (95% or more)” and the “Residual Rate After 4 weeks” value is “⊚ (95% or more)”. In data set [3], the “Coloration After 2 weeks” value was “○ (Total score of 10 panelists is 25 or more)”, the “Odor After 2 weeks” value is reported as “○ (Total score of 10 panelists is 25 or more)”, the “Coloration After 4 weeks” value is reported as “○ (Total score of 10 panelists is 25 or more)” and the “Odor After 4 weeks” value is reported as “Δ”. Further, the “Hyaluronic acid production-promoting effect” value in data set [1] is listed as “+ (100-120%)”.

Take `CC1(C)COC2=C(O1)C(C(O)CO)OC2=O` (centres unmarked) [synthesis example 7, 2,3-O-(2,2-dimethyl-1,2-ethanediyl) ascorbic acid]: in data set [1], the “Hyaluronic acid production-promoting effect” value is “+ (100-120%)”.

As for `CCCCCCCC(=O)OCC(O)C1OC(=O)C2=C1OCCCCO2` (centres unmarked) [synthesis example 11, 6-O-octanoyl-2,3-O-(1,4-butanediyl) ascorbic acid], in data set [2] (pH7, stored at 50°C), the “Residual Rate After 2 weeks” value was “⊚ (95% or more)” and the “Residual Rate After 4 weeks” value is reported as “⊚ (95% or more)”. Further, in data set [2] (pH9, stored at 50°C), the “Residual Rate After 2 weeks” value is recorded as “⊚ (95% or more)” and the “Residual Rate After 4 weeks” value is on record as “○ (85% or more, less than 95%)”. In addition, in data set [3], the “Coloration After 2 weeks” value is given as “○ (Total score of 10 panelists is 25 or more)”, the “Odor After 2 weeks” value was “○ (Total score of 10 panelists is 25 or more)”, the “Coloration After 4 weeks” value is listed as “○ (Total score of 10 panelists is 25 or more)” and the “Odor After 4 weeks” value is reported as “Δ”. The “Hyaluronic acid production-promoting effect” value in data set [1] is listed as “++ (120%<)”.

As to `CC(C)CCCCCCCCCCCCCCC(=O)OC[C@H](OC(=O)CCCCCCCCCCCCCCC(C)C)[C@H]1OC(=O)C2=C1OCCCCO2` [synthesis example 18, 5,6-O-diisostearoyl-2,3-O-(1,4-butanediyl) ascorbic acid], in data set [2] (pH7, stored at 50°C), the “Residual Rate After 2 weeks” value is “⊚ (95% or more)” and the “Residual Rate After 4 weeks” value is “⊚ (95% or more)”. For the same compound, in data set [2] (pH9, stored at 50°C), the “Residual Rate After 2 weeks” value is recorded as “⊚ (95% or more)” and the “Residual Rate After 4 weeks” value is listed as “⊚ (95% or more)”. In data set [3], the “Coloration After 2 weeks” value is recorded as “○ (Total score of 10 panelists is 25 or more)”, the “Odor After 2 weeks” value is “○ (Total score of 10 panelists is 25 or more)”, the “Coloration After 4 weeks” value is “○ (Total score of 10 panelists is 25 or more)” and the “Odor After 4 weeks” value is on record as “Δ”. Besides, the “Hyaluronic acid production-promoting effect” value in data set [1] is listed as “++ (120%<)”.

As for `CCCC(=O)OCC(O)C1OC(=O)C2=C1OCCCO2` (centres unmarked) [synthesis example 20, 6-O-butanoyl-2,3-O-(1,3-propanediyl) ascorbic acid], in data set [2] (pH7, stored at 50°C), the “Residual Rate After 2 weeks” value is on record as “⊚ (95% or more)” and the “Residual Rate After 4 weeks” value is recorded as “⊚ (95% or more)”. Moreover, in data set [2] (pH9, stored at 50°C), the “Residual Rate After 2 weeks” value was “⊚ (95% or more)” and the “Residual Rate After 4 weeks” value is reported as “⊚ (95% or more)”. In data set [3], the “Coloration After 2 weeks” value is recorded as “○ (Total score of 10 panelists is 25 or more)”, the “Odor After 2 weeks” value is recorded as “○ (Total score of 10 panelists is 25 or more)”, the “Coloration After 4 weeks” value is listed as “○ (Total score of 10 panelists is 25 or more)” and the “Odor After 4 weeks” value is recorded as “Δ”. The “Hyaluronic acid production-promoting effect” value in data set [1] was “++ (120%<)”.

Consider `CCCCCCCC(=O)OCC(O)C1OC(=O)C2=C1OCCCO2` (centres unmarked) [synthesis example 22, 6-O-octanoyl-2,3-O-(1,3-propanediyl) ascorbic acid], for which, in data set [2] (pH7, stored at 50°C), the “Residual Rate After 2 weeks” value was “⊚ (95% or more)” and the “Residual Rate After 4 weeks” value is “⊚ (95% or more)”. Further, in data set [2] (pH9, stored at 50°C), the “Residual Rate After 2 weeks” value is “⊚ (95% or more)” and the “Residual Rate After 4 weeks” value is listed as “⊚ (95% or more)”. Besides, in data set [3], the “Coloration After 2 weeks” value is “○ (Total score of 10 panelists is 25 or more)”, the “Odor After 2 weeks” value is recorded as “○ (Total score of 10 panelists is 25 or more)”, the “Coloration After 4 weeks” value was “○ (Total score of 10 panelists is 25 or more)” and the “Odor After 4 weeks” value is given as “Δ”. Further, in data set [1], the “Hyaluronic acid production-promoting effect” value was “++ (120%<)”.

Consider `CC1(C)OCC(C2OC(=O)C3=C2OCCCCO3)O1` (centres unmarked) [synthesis example 35, 5,6-O-isopropylidene-2,3-O-(1,4-butanediyl) ascorbic acid], for which, in data set [1], the “Hyaluronic acid production-promoting effect” value is “++ (120%<)”.

`CC1(C)OCC(C2OC(=O)C3=C2OCCCO3)O1` (centres unmarked) [synthesis example 36, 5,6-O-isopropylidene-2,3-O-(1,3-propanediyl) ascorbic acid]: the “Hyaluronic acid production-promoting effect” value in data set [1] is “++ (120%<)”.

As for `O=C1OC(C2COC(c3ccccc3)O2)C2=C1OCCCCO2` (centres unmarked) [synthesis example 37, 5,6-O-(phenylmethylene)-2,3-O-(1,4-butanediyl) ascorbic acid], in data set [1], the “Hyaluronic acid production-promoting effect” value was “+ (100-120%)”.

Turning to `O=C1OC(C2COC(c3ccccc3)O2)C2=C1OCCCO2` (centres unmarked) [synthesis example 38, 5,6-O-(phenylmethylene)-2,3-O-(1,3-propanediyl) ascorbic acid], the “Hyaluronic acid production-promoting effect” value in data set [1] is listed as “++ (120%<)”.

Take `CC1(C)COC2=C(O1)C(=O)OC2C(O)CO` (centres unmarked) [synthetic example 8, 2,3-O-(1,1-dimethyl-1,2-ethanediyl) ascorbic acid]: the “Hyaluronic acid production-promoting effect” value in data set [1] is reported as “+ (100-120%)”.

As to `CCCCCCCC(=O)OCC(OC(=O)CCC)C1OC(=O)C2=C1OCCCCO2` (centres unmarked) [synthetic example 19, 5-O-butanoyl-6-O-octanoyl-2,3-O-(1,4-butanediyl) ascorbic acid], in data set [2] (pH7, stored at 50°C), the “Residual Rate After 2 weeks” value is “⊚ (95% or more)” and the “Residual Rate After 4 weeks” value is given as “⊚ (95% or more)”. Moreover, in data set [2] (pH9, stored at 50°C), the “Residual Rate After 2 weeks” value is on record as “⊚ (95% or more)” and the “Residual Rate After 4 weeks” value is “⊚ (95% or more)”. Further, in data set [3], the “Coloration After 2 weeks” value is listed as “○ (Total score of 10 panelists is 25 or more)”, the “Odor After 2 weeks” value was “○ (Total score of 10 panelists is 25 or more)”, the “Coloration After 4 weeks” value is listed as “○ (Total score of 10 panelists is 25 or more)” and the “Odor After 4 weeks” value was “Δ”.

For the compound `O=C1OC(C(O)COCc2ccccc2)C2=C1OCCCCO2` (centres unmarked) [synthetic example 39, 6-O-benzyl-2,3-O-(1,4-butanediyl) ascorbic acid], the “Hyaluronic acid production-promoting effect” value in data set [1] is on record as “+ (100-120%)”.

Values taken from EP4818172A1, “ASCORBIC ACID DERIVATIVES AND COSMETIC CONTAINING SAME” (Seiwa Kasei Co., Ltd., priority 2023, dated 2025).
